Assay results from US11434205B2, “Substituted imidazole carboxylate derivatives and the use thereof” (priority 2018, dated 2022).
“And” between values parts separate entries of the source, which are not always exact repeats. Equal values may be shown once. “Also recorded” adds a separate entry of the source. Read-outs that look alike come from different tables or passages of the source. Marks after values point to notes of the source that are not given here.

Key:
rats [1] = experiment: Loss of righting reflexes (LORR) assay in rats, ED50 by up and down method; type: in vivo, rat; settings: tail vein; for ED50: Rattus norvegicus
Protocol: The Anesthetic Activity of the Compounds was Assessed in Rats Using a Loss of Righting Reflexes (LORR) Assay
(§1) Adult male Sprague-Dawley rats (250-300 g) were selected for the experiment. […] The anesthesia effects of the compounds were assessed in rats using a LORR assay and a period >30 s was considered as an indicator of general anesthesia. Then the up and down method was used to determine 50% effective dose (ED50). The drugs were administered through the tail vein of rats in a volume of 0.6 mL and at a rate of 0.1 mL/s.

[2] = tested on: secretion of cortisol, H295R cell line; experiment: cells; type: cell-based; settings: for EC50: read-out: EC50 (Cortisol)
Protocol: (§2) The Effects of the Compounds on Adrenocortical Function In Vitro Test
(§3) Then secretion of the cortisol and corticosterone in the supernatant, was measured using HPLC-MS/MS method to determine whether the compounds of the present invention had adrenotoxic potential.

[3] = tested on: secretion of corticosterone, H295R cell line; experiment: cells; type: cell-based; settings: for EC50: read-out: EC50 (Corticosterone)
Protocol: as §2, §3

rats [4] = type: in vivo, rat; settings: for recovery time of the test animals' righting reflex: rats of the MAP/HR figures, 2×ED50, tail vein, same value in min
Protocol: The Effects of the Compounds on the Circulatory Function were Measured in Rats Using a Small Animal Implanted Physiological Signal Telemetry System
The anesthetic activity of the compounds was assessed in rats using a LORR assay and the up and down method was used to determine ED50. […] A small animal implantable physiological signal telemetry system from DSI (Data Science International, Inc.) was used to measure the changes in heart rate (HR) and blood pressure in rats during 30 min after administration. Then mean arterial pressure (MAP) and HR were used as representative indicators to determine hemodynamic stability of the compounds of the present invention in rats.
A small animal implantable physiological signal telemetry system from DSI (Data Science International, Inc.) including implants (RATHD-521, DSI, United States), receiver boards (RPC-1, DSI, United States), signal conversion devices (DEM, DSI, USA), perfusion glue (DSI, USA), fibrin membrane (DSI, USA), etc.
First, animal models were established. A left ventricular catheter, an abdominal aortic catheter and ECG wires were placed into rats. At least one week after surgery, data were recorded.
Administration procedure: rats were put into a restraint device with a 20 G indwelling catheter placed into a lateral tail vein. After administration of 0.2 mL heparin, a pre-filled extension tube was attached and taped to the tail vein to secure the extension tube. Then the rats were removed from the restraint device to a cage before placing them together on the signal receiver. […] Finally, the pharmacological effects, adverse reactions, and behavioural manifestations of the rats were observed and recorded
Data collection: After setting the data collection parameters on the software, the power of the implant was turned on to start data collection. In this experiment, data recording frequency was set to 15 s. Data collection was continuously recorded for 30 min before and after administration of the drugs in rats. After data acquisition, the test was stopped.

rats [5] = experiment: Pharmacological characteristics at equivalent doses (2×ED50) in rats; settings: 2×ED50, tail vein; for Adverse reactions: Tremor (incidence): animals affected/animals; for Onset time: time of LORR; for Adverse reactions: Red urine (incidence): DMSO solution (DMSO alone 10/10)
Protocol: Comparison of Pharmacological Characteristics of the Compounds at Equivalent Doses (2×ED50) in Rats
Adult male Sprague-Dawley rats (250-300 g) were selected for the experiment (n=8). […] The drugs were administered at a dose twice their ED50 through the tail vein of rats in a volume of 0.6 mL and at a rate of 0.1 mL/s. In addition, the time of LORR was recorded as the onset time of anesthesia. […] Furthermore, the duration of the pharmacological effects is sufficient to meet the time requirements for rapid induction of general anesthesia and for diagnostic examinations, some short invasive clinical examinations, or operations.

rats [6] = tested on: rats
Protocol: Pharmacological Effects of the Compounds on Continuous Infusion in Rats
Adult male Sprague-Dawley rats with body weight ranging from 250 to 300 gm were selected for continuous infusion test. […] Time to recovery of righting reflex from stopping infusion, and time to fully awake from stopping infusion were recorded.

rats [7] = tested on: rats; remark: listed apart in the source
Protocol: as §1

rats [8] = type: in vivo, rat; settings: rats of the MAP/HR figures, 2×ED50, tail vein
[9] = H295R cell line, 0.1-10000 nM, HPLC-MS/MS, Table D3
[10] = H295R cell line, 0.1-10000 nM, HPLC-MS/MS, Table E3
[11] = H295R, 0.1-10000 nM, HPLC-MS/MS
[12] = continuous tail vein infusion at 2×MIR, LORR maintained 1 hour, Table C4
[13] = continuous tail vein infusion at 2×MIR, LORR maintained 1 hour, Table D4
[14] = continuous tail vein infusion at 2×MIR, LORR maintained 1 hour, Table E4

COC(=O)C1(OC(=O)c2cncn2[C@H](C)c2ccccc2)CC1 [CPMM, cyclopropyl methoxycarbonyl methylate, reference compound]
ED50 (mg/kg) (rats [1]; brackets = 95% confidence limit): 0.78 (0.74-0.82)* mg/kg
Cortisol as an indicator to determine the presence of inhibition [2, 9]: 1
EC50 [2, 9]: > 10 nM
Cortisol as an indicator to determine the presence of inhibition [2, 10]: 1
EC50 [2, 10]: > 10 nM
EC50 [2, 11]: > 10 nM
Cortisol as an indicator to determine the presence of inhibition ([2]; H295R, Table A3): 1
Cortisol as an indicator to determine the presence of inhibition ([2]; H295R, Table B3): 1
Cortisol as an indicator to determine the presence of inhibition ([2]; H295R, Table C3): 1
Corticosterone as an indicator to determine the presence of inhibition [3, 9]: 1
EC50 [3, 9]: > 100 nM
Corticosterone as an indicator to determine the presence of inhibition [3, 10]: 1
EC50 [3, 10]: > 100 nM
EC50 [3, 11]: > 100 nM
Corticosterone as an indicator to determine the presence of inhibition ([3]; H295R, Table A3): 1
Corticosterone as an indicator to determine the presence of inhibition ([3]; H295R, Table B3): 1
Corticosterone as an indicator to determine the presence of inhibition ([3]; H295R, Table C3): 1
effect on the circulatory function (MAP, HR) (rats [4]; rats, 2×ED50, 30 min after administration): almost no inhibitory effect on the circulatory function
Adverse reactions: Convulsions (incidence) (rats [5]): Convulsions (4/10), Tremor and 4/10 and Convulsions (4/10), and (4/10),
Adverse reactions: Myoclonus (incidence) (rats [5]): (5/10), Myoclonus (5/10); also recorded: Myoclonus (5/10)
Righting reflex duration (rats [5]): 1.62 ± 0.63 min
Adverse reactions: Tremor (incidence) (rats [5]): (5/10), Myoclonus (5/10) and 5/10 and Tremor (5/10), and (5/10),
Onset time (rats [5]): 0.26 ± 0.08 min
Recovery time after stopping infusion (rats [6]; after 1 hour infusion at 2×MIR): 7 to 8 min
Adverse reactions: Convulsions (incidence) (rats [6]; continuous infusion 2×MIR): 3/6
Adverse reactions: Myoclonus (incidence) (rats [6]; continuous infusion 2×MIR): Myoclonus (5/6)
Adverse reactions: Tremor (incidence) (rats [6]; continuous infusion 2×MIR): 5/6
Onset time (rats [6]; [12]): 3 to 4 min
Recovery time after stopping infusion (rats [6]; [12]): 7 to 8 min
Onset time (rats [6]; [13]): 3 to 4 min
Recovery time after stopping infusion (rats [6]; [13]): 7 to 8 min
Onset time (rats [6]; [14]): 3 to 4 min
Recovery time after stopping infusion (rats [6]; [14]): 7 to 8 min
Onset time (rats [6]; emulsion, continuous infusion at 2×MIR): 3 to 4 min
Approximate therapeutic index (rats [7]): >10
Minimal lethal dose (rats [7]): >7.8 mg/kg

CC(=O)C1(OC(=O)c2cncn2[C@H](C)c2ccccc2)CC1 [Compound C1]
ED50 (rats [1]; class symbols): 0.01 to 0.1 mg/kg
recovery time of the test animals' righting reflex (rats [8]): 130 s
recovery time of the test animals' righting reflex (rats [4]): 2.17 min
Righting reflex duration (rats [5]): 1.9 ± 0.64 min
Adverse reactions: Red urine (incidence) (rats [5]): (8/8)
Adverse reactions: Tremor (incidence) (rats [5]): Tremor (8/8), Red urine
Onset time (rats [5]): 0.15 ± 0.09 min
Approximate therapeutic index (rats [7]): >90
Minimal lethal dose (rats [7]): >20 mg/kg

C=CC1(OC(=O)c2cncn2[C@H](C)c2ccccc2)COC1 [Compound D7]
ED50 (rats [1]; class symbols): 0.5 to 1 mg/kg
recovery time of the test animals' righting reflex (rats [8]): 410 s
recovery time of the test animals' righting reflex (rats [4]): 6.83 min
Righting reflex duration (rats [5]): 3.20 ± 0.81 min
Adverse reactions: Red urine (incidence) (rats [5]): Red urine (8/8)
Onset time (rats [5]): 0.10 ± 0.01 min
Approximate therapeutic index (rats [7]): >10
Minimal lethal dose (rats [7]): >6 mg/kg

C=C=CC1(OC(=O)c2cncn2[C@H](C)c2ccccc2)CCOCC1 [Compound D34]
ED50 (rats [1]; class symbols): 0.5 to 1 mg/kg
recovery time of the test animals' righting reflex (rats [8]): 170 s
recovery time of the test animals' righting reflex (rats [4]): 2.83 min
Righting reflex duration (rats [5]): 4.50 ± 0.86 min
Adverse reactions: Red urine (incidence) (rats [5]): Red urine (8/8)
Onset time (rats [5]): 0.11 ± 0.04 min
Approximate therapeutic index (rats [7]): >13
Minimal lethal dose (rats [7]): >8 mg/kg

C[C@H](c1ccccc1)n1cnc(F)c1C(=O)OC1CCC1 [Compound E9]
ED50 (mg/kg) (rats [1]; class symbols): B (B means that the measured ED50 is in the range of 0.10-0.50 mg/kg (excluding 0.10 mg/kg, including 0.50 mg/kg).)
recovery time of the test animals' righting reflex (rats [8]): 77 s
recovery time of the test animals' righting reflex (rats [4]): 1.28 min
Righting reflex duration (rats [5]): 1.24 ± 0.79 min
Sedation duration (mg/kg) (rats [5]): 9.29 ± 2.07
Adverse reactions: Red urine (incidence) (rats [5]): (8/8)
Onset time (rats [5]): 0.42 ± 0.20 min
Approximate therapeutic index (rats [7]): >48
Minimal lethal dose (rats [7]): >6 mg/kg
